Data taken from US9169213B2, “Method of weight management” (Arena Pharmaceuticals, Inc., priority 2012, dated 2015).
Several values for one entry are separate records, joined by “and”; a condition that tells them apart may be missing. Equal values may be shown once.

What was measured:
Format in all cases: in vivo, human
[1] = Pooled BLOOM and BLOSSOM Phase 3 studies: Week 52 outcomes by Week 12/Week 24 responder status, patients without T2DM; settings: for Diastolic BP, Week 52 Change from Baseline Mean (SE) / HbA1c, Week 52 Change from Baseline Mean (SE) / Heart Rate, Week 52 Change from Baseline Mean (SE) / Systolic BP, Week 52 Change from Baseline Mean (SE): Without T2DM
Description: APD356-009 (“BLOOM”) was a 104-week, placebo controlled study that assessed the safety and efficacy of lorcaserin 10 mg BID in overweight and obese patients, with concurrent behavior modification. The primary efficacy objective during Year 1 was to evaluate weight loss; the primary objective during Year 2 was to assess the ability of lorcaserin to maintain body weight loss that was achieved during Year 1. At study start, each patient received randomized, double blind treatment assignments for Year 1 and for Year 2 (all patients were given a new randomization number for Year 2 to assure that patients and study personnel remained blinded to treatment assignments). All patients assigned to placebo during Year 1 (50% of randomized population) remained on placebo in Year 2. Patients assigned to lorcaserin during Year 1 were randomly assigned to stay on lorcaserin during Year 2 (⅔ of Year 1 lorcaserin patients) or to switch to placebo (⅓ of Year 1 lorcaserin patients).
APD356-011 (“BLOSSOM”) was a 52-week, placebo controlled study that evaluated the effect of two lorcaserin doses (10 mg BID and 10 mg QD) on categorical and total weight loss with concurrent behavior modification. Patients were randomized in a ratio of 2:1:2 to lorcaserin 10 mg BID, 10 mg QD, or placebo.
(§1) An analysis of early weight loss was performed, at each visit after baseline through Week 24, as a predictor of ultimate weight loss success, as defined by achieving at least about 5% weight loss at 52 weeks, or at least about 10% weight loss at 52 weeks.

[2] = Lorcaserin pivotal phase 3 clinical trial program (NDA summary)
Description: The NDA submission is based on an extensive data package from lorcaserin's clinical development program that includes 18 clinical trials totaling 8,576 patients. […] About two-thirds of patients achieved at least 5% weight loss and over one-third achieved at least 10% weight loss. On average, patients lost 17 to 18 pounds or about 8% of their weight. Secondary endpoints, including body composition, lipids, cardiovascular risk factors and glycemic parameters improved compared to placebo. In addition, heart rate and blood pressure went down. […] Lorcaserin improved quality of life, and there was no signal for depression or suicidal ideation. The only adverse event that exceeded the placebo rate by 5% was generally mild or moderate, transient headache. Based on a normal BMI of 25, patients in the first phase 3 trial lost about one-third of their excess body weight. The average weight loss was 35 pounds or 16% of body weight for the top quartile of patients in the second phase 3 trial.

[3] = BLOOM-DM (APD356-010) Phase 3 study: Week 52 outcomes by Week 12/Week 24 responder status, patients with type 2 diabetes mellitus; settings: for Diastolic BP, Week 52 Change from Baseline Mean (SE) / HbA1c, Week 52 Change from Baseline Mean (SE) / Heart Rate, Week 52 Change from Baseline Mean (SE) / Systolic BP, Week 52 Change from Baseline Mean (SE): With T2DM
Description: APD356-010 (BLOOM-DM) was a 52-week, placebo controlled study that evaluated the effect of two lorcaserin doses (10 mg BID and 10 mg QD) on categorical and total weight loss with concurrent behavior modification in 604 patients with type 2 diabetes mellitus managed with oral hypoglycemic agents. Randomization to the 10 mg once daily group was halted by protocol amendment in order to accelerate enrollment, resulting in final group sizes of 253 (placebo), 95 (lorcaserin QD) and 256 (lorcaserin BID).
as §1
Table 3 and Table 4 provide the sensitivity, specificity, positive predicted value (PPV) and negative predictive value (NPV) at Weeks 12 and 24 for at least about 5% and at least about 10% weight loss at Week 52 in different studies. The rounded percent weight loss at Week 12 for at least 5% and at least about 10% weight loss at Week 52 are about 5% and about 6%, respectively. Using the about 6% weight loss at Week 12 as a criterion enhances the PPV for both about 5% and about 10% categorical weight loss at Week 52, but at the expense of excluding about 10% and about 4% more of the about 5% categorical responders at Week 52 in patients without and with diabetes, respectively, based upon NPV. The rounded optimal thresholds at Week 24 for at least about 5% and at least about 10% weight loss at Week 52 are about 6% and about 9%, respectively. Using the 9% weight loss criterion at Week 24 enhances the PPV for both about 5% and about 10% categorical weight loss at Week 52, but at the expense of excluding about 19% and about 9% more of the about 5% categorical responders at Week 52 in patients without and with diabetes, respectively, based upon NPV. As described below, if at least about a 5% weight loss criterion is applied, patients achieving this milestone will achieve an average of about 10.8% weight loss in patients without diabetes and about 9.1% weight loss in patients with diabetes at Week 52.
Tables 6 and 7, below, present weight loss, vital sign, and glycemic changes at Week 52 in pooled patients without diabetes, patients with T2DM, and pooled patients with impaired fasting glucose (IFG; ≧100 mg/dL) who were Week 12 responders.

[4] = Week 12 Non-responder (<5%), Completers Population, 10 mg BID
[5] = Week 12 Non-responder (<5%), MITT with LOCF, 10 mg BID
[6] = Week 12 Responder (≧5% weight loss), Completers Population, 10 mg BID
[7] = Week 12 Responder (≧5% weight loss), MITT with LOCF, 10 mg BID
[8] = Week 12 responders without diabetes
[9] = Week 12 Nonresponder (5%), 10 mg BID
[10] = Week 12 Responder (5%), 10 mg BID
[11] = of patients with observed Week 12 data, without diabetes, 10 mg BID, listed as Lorcaserin
[12] = Week 12 Responder (≧5%), Completers Population, 10 mg BID
[13] = of patients with observed Week 12 data, type 2 diabetes, 10 mg BID

## C[C@H]1CNCCc2ccc(Cl)cc21 [lorcaserin, (R)-8-chloro-1-methyl-2,3,4,5-tetrahydro-1H-3-benzazepine]
[1]; [4]
  Week 52 Weight 5% Responder: 35.9%
  Week 52 Weight 10% Responder: 7.4%
  Week 52 Weight Mean (SE) Change from Baseline, kg: −3.50 (0.18) kg
  Week 52 Weight Mean (SE) Percent Change from Baseline, %: −3.44 (0.18) %
[1]; [5]
  Week 52 Weight 10% Responder: 4.7%
  Week 52 Weight Mean (SE) Change from Baseline, kg: −2.76 (0.12) kg
  Week 52 Weight Mean (SE) Percent Change from Baseline, %: −2.73 (0.12) %
[1]; [6]
  Week 52 Weight 5% Responder: 85.8%
  Week 52 Weight 10% Responder: 55.9%
  Week 52 Weight Mean (SE) Change from Baseline, kg: −11.31 (0.21) kg
  Week 52 Weight Mean (SE) Percent Change from Baseline, %: −11.52 (0.21) %
[1]; [7]
  Week 52 Weight 10% Responder: 49.8%
  Week 52 Weight Mean (SE) Change from Baseline, kg: −10.63 (0.18) kg
  Week 52 Weight Mean (SE) Percent Change from Baseline, %: −10.84 (0.18) %
[1]; [8]
  Week 52 reduction in diastolic blood pressure: 2.5 mmHg
  Week 52 reduction in heart rate: 2.5 BPM
  Week 52 reduction in systolic blood pressure: 3.4 mmHg
[1]; [9]
  Diastolic BP, Week 52 Change from Baseline Mean (SE): −1.02 (0.25)
  HbA1c, Week 52 Change from Baseline Mean (SE): −0.05 (0.01)
  Heart Rate, Week 52 Change from Baseline Mean (SE): −0.29 (0.26)
  Systolic BP, Week 52 Change from Baseline Mean (SE): −0.82 (0.34)
[1]; [10]
  Diastolic BP, Week 52 Change from Baseline Mean (SE): −2.52 (0.25)
  HbA1c, Week 52 Change from Baseline Mean (SE): −0.18 (0.01)
  Heart Rate, Week 52 Change from Baseline Mean (SE): −2.45 (0.26)
  Systolic BP, Week 52 Change from Baseline Mean (SE): −3.39 (0.34)
[1]; of patients with observed Week 12 data, without diabetes, 10 mg BID
  Week 12 Non-Responder (<5% wt loss), percentage of patients: 1,286/2,537(50.7%)
[1]; [11]
  Week 12 Non-Responder (<5% wt loss), percentage of patients: 1286 (50.7%)
  Week 12 Responder (at least 5% weight loss at Week 12), percentage of patients: 1251 (49.3%)
[1]; patients without diabetes achieving at least about 5% weight loss at Week 12
  average weight loss at Week 52: about 10.8%
[2]; phase 3 program
  risk of cardiac valvulopathy: did not increase
[2]; pivotal phase 3 program
  average weight lost, of their weight: about 8%
[2]; second phase 3 trial
  average weight loss of body weight, top quartile of patients: 16%
  average weight loss, top quartile of patients: 35 pounds
[3]; [4]
  Week 52 Weight 5% Responder: 29.0%
  Week 52 Weight 10% Responder: 10.0%
  Week 52 Weight Mean (SE) Change from Baseline, kg: −3.45 (0.44) kg
  Week 52 Weight Mean (SE) Percent Change from Baseline, %: −3.36 (0.42) %
[3]; [5]
  Week 52 Weight 5% Responder: 25.2%
  Week 52 Weight 10% Responder: 8.6%
  Week 52 Weight Mean (SE) Change from Baseline, kg: −3.20 (0.36) kg
  Week 52 Weight Mean (SE) Percent Change from Baseline, %: −3.13 (0.35) %
[3]; [7]
  Week 52 Weight 5% Responder: 71% and 70.5%
  Week 52 Weight 10% Responder: 36% and 35.9%
  Week 52 Weight Mean (SE) Change from Baseline, kg: −9.26 (0.77) kg
  Week 52 Weight Mean (SE) Percent Change from Baseline, %: −9.07 (0.70) %
[3]; [12]
  Week 52 Weight 5% Responder: 70.8%
  Week 52 Weight 10% Responder: 40.0%
  Week 52 Weight Mean (SE) Change from Baseline, kg: −9.77 (0.89) kg
  Week 52 Weight Mean (SE) Percent Change from Baseline, %: −9.49 (0.80) %
[3]; Week 12 non-responders with type 2 diabetes
  change in HbA1c at Week 52: −0.84%
[3]; Week 12 responders with T2DM
  Week 52 reduction in diastolic blood pressure: 1.9 mmHg
  Week 52 reduction in heart rate: 3.2 BPM
  Week 52 reduction in systolic blood pressure: 2.6 mmHg
[3]; Week 12 responders, patients with T2DM, 10 mg BID
  A1C W52 Change: −1.2%
[3]; [9]
  Diastolic BP, Week 52 Change from Baseline Mean (SE): −1.07 (0.86)
  HbA1c, Week 52 Change from Baseline Mean (SE): −0.84 (0.09)
  Heart Rate, Week 52 Change from Baseline Mean (SE): −0.87 (0.73)
  Systolic BP, Week 52 Change from Baseline Mean (SE): −0.55 (1.11)
[3]; [10]
  Diastolic BP, Week 52 Change from Baseline Mean (SE): −1.91 (1.01)
  HbA1c, Week 52 Change from Baseline Mean (SE): −1.20 (0.11)
  Heart Rate, Week 52 Change from Baseline Mean (SE): −3.24 (1.21)
  Systolic BP, Week 52 Change from Baseline Mean (SE): −2.59 (1.73)
[3]; [13]
  Week 12 Non-Responder, percentage of patients: 139 (64.1%)
  Week 12 Responder (at least 5% weight loss at Week 12), percentage of patients: 35.9%
[3]; of patients with observed Week 12 data, type 2 diabetes, 10 mg BID, listed as Lorcaserin
  Week 12 Responder (at least 5% weight loss at Week 12), percentage of patients: 78 (35.9%)
[3]; patients with diabetes achieving at least about 5% weight loss at Week 12
  average weight loss at Week 52: about 9.1%
